# Target: PI3K delta (Homo sapiens (Human), UniProt O00329)
# Experiment: Luciferase-coupled chemiluminescence kinase assay (KinaseGlo, ATP consumption)
# Type: biochemical
# Method in brief: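 Kinase, compound and ATP (at or below KM) reacted 2 h at ambient temperature; remaining ATP detected by KinaseGlo luciferase chemiluminescence as percent ATP consumed. 10-point dose-response, curves fitted to give IC50.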
# PI3K delta, sequence (O00329 whole entry): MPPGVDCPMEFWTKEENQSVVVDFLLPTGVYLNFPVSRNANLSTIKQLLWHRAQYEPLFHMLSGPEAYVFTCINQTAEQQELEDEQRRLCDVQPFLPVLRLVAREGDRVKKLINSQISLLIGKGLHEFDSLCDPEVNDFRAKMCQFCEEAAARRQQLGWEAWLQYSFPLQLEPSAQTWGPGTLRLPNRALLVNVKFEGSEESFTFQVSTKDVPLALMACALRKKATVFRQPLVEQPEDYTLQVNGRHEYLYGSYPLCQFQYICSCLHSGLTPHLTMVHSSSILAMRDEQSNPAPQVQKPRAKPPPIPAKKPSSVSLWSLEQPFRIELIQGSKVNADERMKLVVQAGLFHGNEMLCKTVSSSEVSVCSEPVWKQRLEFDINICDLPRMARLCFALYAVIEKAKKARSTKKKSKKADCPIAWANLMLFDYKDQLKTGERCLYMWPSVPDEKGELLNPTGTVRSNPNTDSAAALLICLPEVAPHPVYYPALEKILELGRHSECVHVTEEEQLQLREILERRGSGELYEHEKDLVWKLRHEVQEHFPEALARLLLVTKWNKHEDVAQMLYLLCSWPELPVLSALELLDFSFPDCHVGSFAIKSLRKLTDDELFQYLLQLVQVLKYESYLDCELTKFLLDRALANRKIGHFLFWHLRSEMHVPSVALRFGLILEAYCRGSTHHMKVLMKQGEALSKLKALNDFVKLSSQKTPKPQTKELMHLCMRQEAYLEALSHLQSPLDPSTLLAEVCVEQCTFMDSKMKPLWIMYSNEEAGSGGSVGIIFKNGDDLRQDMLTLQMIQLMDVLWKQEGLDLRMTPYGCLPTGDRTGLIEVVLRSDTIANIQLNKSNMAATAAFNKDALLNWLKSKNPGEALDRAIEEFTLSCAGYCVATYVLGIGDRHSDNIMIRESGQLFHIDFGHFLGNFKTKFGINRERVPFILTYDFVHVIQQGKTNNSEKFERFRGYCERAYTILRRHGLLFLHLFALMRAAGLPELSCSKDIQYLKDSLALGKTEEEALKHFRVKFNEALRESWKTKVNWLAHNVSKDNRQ
# PI3K delta, sequence (P27986 whole entry partner): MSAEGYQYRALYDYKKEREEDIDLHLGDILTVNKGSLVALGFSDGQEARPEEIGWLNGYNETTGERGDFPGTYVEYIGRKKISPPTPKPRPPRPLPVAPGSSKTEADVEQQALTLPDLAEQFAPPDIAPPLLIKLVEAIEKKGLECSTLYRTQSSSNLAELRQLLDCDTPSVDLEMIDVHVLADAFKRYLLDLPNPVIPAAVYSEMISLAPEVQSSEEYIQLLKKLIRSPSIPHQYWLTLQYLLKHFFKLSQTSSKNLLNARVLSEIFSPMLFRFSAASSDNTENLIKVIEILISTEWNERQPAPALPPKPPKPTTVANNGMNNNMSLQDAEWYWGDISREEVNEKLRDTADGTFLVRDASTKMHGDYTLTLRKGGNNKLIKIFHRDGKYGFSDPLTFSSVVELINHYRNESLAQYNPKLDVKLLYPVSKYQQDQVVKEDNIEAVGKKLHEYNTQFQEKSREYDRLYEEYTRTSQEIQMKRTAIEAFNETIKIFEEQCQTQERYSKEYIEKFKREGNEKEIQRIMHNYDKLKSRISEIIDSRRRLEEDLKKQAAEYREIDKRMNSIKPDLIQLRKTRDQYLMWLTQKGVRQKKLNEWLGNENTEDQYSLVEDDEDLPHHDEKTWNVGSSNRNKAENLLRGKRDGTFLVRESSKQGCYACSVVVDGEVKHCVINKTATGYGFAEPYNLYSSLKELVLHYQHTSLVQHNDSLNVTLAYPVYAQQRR
row,Compound,IC50 [nM]
1,"Cc1cccc(-c2nc3c(C)cccc3cc2Cn2cnc3c(N)ncnc32)c1C [Compound 180, 9-{[2-(2,3-dimethylphenyl)-8-methylquinolin-3-yl]methyl}-9H-purin-6-amine]",500 to 1500
2,"Cc1cccc2cc(Cn3cnc4c(N)ncnc43)c(-c3ccccc3C(F)(F)F)nc12 [Compound 182, 9-({8-methyl-2-[2-(trifluoromethyl)phenyl]quinolin-3-yl}methyl)-9H-purin-6-amine]",50 to 250
3,"Cc1cccc(-c2nc3c(C)cccc3cc2Cn2cnc3c(N)ncnc32)c1 [Compound 183, 9-{[8-methyl-2-(3-methylphenyl)quinolin-3-yl]methyl}-9H-purin-6-amine]",250 to 500
4,"COCCOc1cccc(-c2nc3c(C)cccc3cc2Cn2cnc3c(N)ncnc32)c1 [Compound 184, 9-{[8-methyl-2-(3-{[2-(methyloxy)ethyl]oxy}phenyl)quinolin-3-yl]methyl}-9H-purin-6-amine]",250 to 500
5,"COc1cccc(-c2nc3c(C)cccc3cc2Cn2cnc3c(N)ncnc32)c1 [Compound 185, 9-({8-methyl-2-[3-(methyloxy)phenyl]quinolin-3-yl}methyl)-9H-purin-6-amine]",250 to 500
6,"Cc1cccc2cc(Cn3cnc4c(N)ncnc43)c(-c3ccccc3Cl)nc12 [Compound 187, 9-{[2-(2-chlorophenyl)-8-methylquinolin-3-yl]methyl}-9H-purin-6-amine]",50 to 250
7,"Cc1ccccc1-c1nc2c(C)cccc2cc1CSc1ncnc2[nH]cnc12 [Compound 188, 8-methyl-2-(2-methylphenyl)-3-[(9H-purin-6-ylthio)methyl]quinoline]",50 to 250
8,"Cc1ccccc1-c1nc2c(C)cccc2cc1Cn1cnc2c(N)ncnc21 [Compound 189, 9-{[8-methyl-2-(2-methylphenyl)quinolin-3-yl]methyl}-9H-purin-6-amine]",50 to 250
9,"Cc1ccccc1-c1nc2ccccc2nc1Cn1cnc2c(N)ncnc21 [Compound 190, 9-{[3-(2-methylphenyl)quinoxalin-2-yl]methyl}-9H-purin-6-amine]",500 to 1500
10,"Cc1ccccc1-c1nc2ccccc2cc1Cn1cnc2c(N)ncnc21 [Compound 191, 9-{[2-(2-methylphenyl)quinolin-3-yl]methyl}-9H-purin-6-amine]",500 to 1500

# Reference: patent US9670212B2, “Inhibitors of PI3K-delta and methods of their use and manufacture” (Exelixis, Inc., priority 2010, dated 2017)
